Laboratory results: patent US6602882B1, “Quinoline derivatives and their use as antibacterial agents” (SmithKline Beecham p.l.c., priority 1998, dated 2003)
In brackets after ≈: the same amount, converted by molar mass. Read-outs that look alike come from different tables or passages of the source.

Tests used:
Format in all cases: cell-based
S. aureus WCUH29 = experiment: MIC against S. aureus WCUH29
Experimental: (§1) The MIC (μg/ml) of compounds 1, 3 and 4 against various organisms was determined.

E. faecalis I = experiment: MIC against E. faecalis I
Experimental: as §1

S. aureus Oxford = experiment: MIC against S. aureus Oxford
Experimental: as §1

S. pneumoniae R6 = experiment: MIC against S. pneumoniae R6
Experimental: as §1

S. aureus Carter 37 = experiment: MIC against S. aureus Carter 37
Experimental: as §1

M. catarrhalis Ravasio = experiment: MIC against M. catarrhalis Ravasio
Experimental: as §1

[1] = Staphylococcus aureus, read-out: MIC
[2] = Enterococcus faecalis, read-out: MIC
[3] = Streptococcus pneumoniae, read-out: MIC
[4] = Staphylococcus aureus, CARTER37, read-out: MIC

MIC (S. aureus WCUH29)	MIC (E. faecalis I)	MIC (S. aureus Oxford)	SMILES	MIC (S. aureus WCUH29; [1])	MIC (E. faecalis I; [2])	MIC (S. aureus Oxford; [1])	MIC (S. pneumoniae R6; [3])	MIC (S. aureus Carter 37; [4])	MIC (S. pneumoniae R6)	MIC (S. aureus Carter 37)	MIC (M. catarrhalis Ravasio)	MIC (M. catarrhalis Ravasio; Moraxella catarrhalis, read-out: MIC)
			CCCCCCCN1CCC(NC(=O)Nc2ccnc3ccc(OC)cc23)CC1 [Example 4, 1-Heptyl-4-(6-methoxyquinolin4-yl)ureidopiperidine]	8 µg/mL (≈ 20.1 µM)	8 µg/mL (≈ 20.1 µM)	16 µg/mL (≈ 40.1 µM)	2 µg/mL (≈ 5.02 µM)	16 µg/mL (≈ 40.1 µM)				
1 µg/mL	4 µg/mL	1 µg/mL	CCCCCCCN1CC[C@H](NC(=O)Nc2ccnc3ccc(OC)cc23)[C@H](CO)C1.O=C(O)C(=O)O (relative stereo) [Example 5, N-(cis-1-Heptyl-3-(R/S)-hydroxymethyl-4-(S/R)-piperidyl)-N′-(6-methoxyquinolin-4-yl)urea oxalate]									
1 µg/mL	8 µg/mL	0.5 µg/mL	CCCCCCCN1CC[C@H](NC(=O)Nc2ccnc3ccc(OC)nc23)[C@H](CO)C1.O=C(O)C(=O)O (relative stereo) [Example 6, N-(cis-1-Heptyl-3-(R/S)-hydroxymethyl-4-(S/R)-piperidyl)-N′-(6-methoxy-[1,5]-naphthyridin-4-yl)urea Oxalate]									
			CCCCCCCN1CCC(OC(=O)Nc2ccnc3ccc(OC)cc23)CC1 [Example 3, 1-Heptyl-4-[N-(6-methoxyquinolin-4-yl)aminocarbonyloxy]piperidine]	4 µg/mL (≈ 10 µM)	8 µg/mL (≈ 20 µM)	8 µg/mL (≈ 20 µM)	4 µg/mL (≈ 10 µM)	8 µg/mL (≈ 20 µM)				16 µg/mL (≈ 40 µM)
1 µg/mL	8 µg/mL	1 µg/mL	CCCCCCCN1CCC(NC(=O)Nc2ccnc3ccc(OC)nc23)CC1.O=C(O)C(=O)O [Example 7]									

SMILES	MIC (S. aureus WCUH29)	MIC (E. faecalis I)	MIC (S. aureus Oxford)	MIC (S. aureus WCUH29; [1])	MIC (E. faecalis I; [2])	MIC (S. aureus Oxford; [1])	MIC (S. pneumoniae R6; [3])	MIC (S. aureus Carter 37; [4])	MIC (S. pneumoniae R6)	MIC (S. aureus Carter 37)	MIC (M. catarrhalis Ravasio)	MIC (M. catarrhalis Ravasio; Moraxella catarrhalis, read-out: MIC)
CCCCCC1CCC2CC(OC(=O)Nc3ccnc4ccc(OC)cc34)CCN2C1 (centres unmarked) [Example 1, 1-Aza-8-(ax)-[(6-methoxyquinolin-4-yl)-aminocarbonyloxy]-3-(ax)-n-pentyl-bicyclo[4,4,0]decane]	4 µg/mL (≈ 9.4 µM)	8 µg/mL (≈ 18.8 µM)	2 µg/mL (≈ 4.7 µM)						1 µg/mL (≈ 2.35 µM)	8 µg/mL (≈ 18.8 µM)	32 µg/mL (≈ 75.2 µM)	
